Among the test systems are NCI-H522 lung; SK-OV-3 ovarian; MDA-N; EKVX NSCLC; OVCAR-3 ovarian; KM12 colon; MCF7 breast; NCI-H226 lung.
What all share (experiment): DTP human tumour cell line panel, 48 h

Consider 15 compounds from PubChem BioAssay (NCI).

Molecules are shown by their SMILES.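 96-well plates; 48 h exposure; 5 concentrations. Endpoints by linear interpolation between flanking doses. Not reached: highest tested concentration assigned. Here, GI50 denotes the concentration required for 50% inhibition of growth. Definition used: TGI = concentration required for complete inhibition of growth.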

Broadly, the TGI is the concentration at which net growth stops. Higher therefore signals lower sensitivity of the cells. As for `O=C(Nc1sccc1S(=O)(=O)c1ccc(Cl)cc1)c1ccc(F)cc1F`, the TGI with NCI-H522 lung is 51.9 µM; in the assay with SK-OV-3 ovarian, 53.4 µM; with MDA-N, greater than 100 µM; in the assay on EKVX NSCLC, 43.5 µM; in the assay on OVCAR-3 ovarian it was greater than 100 µM; with KM12 colon it was greater than 100 µM. Moreover, the TGI in the assay on MCF7 breast and with NCI-H226 lung was greater than 100 µM in each case.

With `O=C1CCCNn2c(nc3ncccc3c2=O)N1`, the TGI in the assay with NCI-H522 lung, with SK-OV-3 ovarian, with MDA-N, in the assay with EKVX NSCLC, in the assay on OVCAR-3 ovarian and in the assay with KM12 colon was greater than 100 µM throughout. Besides, the TGI in the assay with MCF7 breast and in the assay on NCI-H226 lung was greater than 100 µM each time.

For orientation: GI50 means the concentration giving 50% growth inhibition. With `CCn1c(=O)c2nc(SC)sc2n(-c2ccc(C)cc2)c1=O`, the TGI with NCI-H522 lung, in the assay with SK-OV-3 ovarian, in the assay on MDA-N, with EKVX NSCLC, in the assay on OVCAR-3 ovarian and in the assay on KM12 colon was greater than 100 µM in each case. The TGI in the assay on MCF7 breast and in the assay with NCI-H226 lung was greater than 100 µM each time. In addition, in the assay on EKVX NSCLC, the GI50 is 71.4 µM.

In the case of `O=C1COc2cc(N3CCN(c4cccc(C(F)(F)F)c4)CC3)ccc2N1`, the TGI with NCI-H522 lung, in the assay with SK-OV-3 ovarian, with MDA-N, in the assay with EKVX NSCLC, in the assay with OVCAR-3 ovarian and in the assay with KM12 colon was greater than 100 µM each time. Moreover, the TGI in the assay with MCF7 breast and with NCI-H226 lung was greater than 100 µM throughout.

Regarding `FC(F)(F)c1cc(N(C2c3ccccc3C=Cc3ccccc32)P(Cl)Cl)cc(C(F)(F)F)c1`, the TGI turned out to be 28.6 µM in the assay with NCI-H522 lung; 69.8 µM in the assay on SK-OV-3 ovarian; 76.9 µM in the assay with MDA-N; 38.6 µM in the assay on EKVX NSCLC; 31.1 µM with OVCAR-3 ovarian; 49.4 µM in the assay with KM12 colon. Also, the TGI in the assay on MCF7 breast worked out at 50 µM; with NCI-H226 lung, 38.7 µM.

Regarding `C/C=C(\C)C(=O)OC1CC(OC(C)=O)C2(C(=O)OC)COC3C2C1(C)C1C2(C(=O)OC)OCC1(C3O)C1(O)C3CC(C4(O)C=COC4O3)C1(C)O2` (stereo unspecified), the TGI with NCI-H522 lung, in the assay on SK-OV-3 ovarian, in the assay on MDA-N, with EKVX NSCLC, in the assay on OVCAR-3 ovarian and in the assay with KM12 colon was greater than 100 µM each time. Also, the TGI in the assay on MCF7 breast and in the assay on NCI-H226 lung was greater than 100 µM in each case.

`Cn1cccc1-c1ccc(-c2ccc(CO)[se]2)[se]1`: the TGI is 50.1 µM with NCI-H522 lung; greater than 78.3 µM with SK-OV-3 ovarian; greater than 100 µM in the assay with MDA-N; greater than 100 µM with EKVX NSCLC; greater than 100 µM with OVCAR-3 ovarian; 50.5 µM with KM12 colon. Further, the TGI in the assay on MCF7 breast is greater than 40 µM; in the assay with NCI-H226 lung, 5.89 µM.

Take `O=C(c1ccccc1)c1ccc2nc(-c3c(Cl)c(Cl)c(Cl)c(Cl)c3-c3nnc(-c4ccccc4)o3)[nH]c2c1`: the TGI is 55.7 µM in the assay on NCI-H522 lung; greater than 100 µM in the assay on SK-OV-3 ovarian; 15.5 µM in the assay with MDA-N; greater than 100 µM with EKVX NSCLC; greater than 100 µM in the assay with OVCAR-3 ovarian; greater than 100 µM in the assay with KM12 colon. Besides, the total growth inhibition concentration (TGI) with MCF7 breast is greater than 100 µM; with NCI-H226 lung, 97.7 µM.

On to `COC(=O)c1ccccc1C1CN=NC12Cc1c(ccc3c1CCC3)C2=O` (stereo unspecified), for which the TGI is 43.7 µM in the assay with NCI-H522 lung; greater than 100 µM in the assay with SK-OV-3 ovarian; 49.5 µM with MDA-N; greater than 100 µM in the assay on EKVX NSCLC; greater than 100 µM in the assay on OVCAR-3 ovarian; greater than 100 µM with KM12 colon. Also, the TGI in the assay with MCF7 breast and in the assay on NCI-H226 lung was greater than 100 µM each time.

As to `CC(C)(C)OC(=O)N/C(C=O)=C\C1CCCCC1`, the TGI with NCI-H522 lung is greater than 100 µM; in the assay with SK-OV-3 ovarian, greater than 100 µM; in the assay on MDA-N it was 50.3 µM; with EKVX NSCLC, 35.4 µM; with OVCAR-3 ovarian, 73.1 µM; in the assay on KM12 colon, 77.6 µM. Moreover, the TGI in the assay on MCF7 breast was 72.8 µM; with NCI-H226 lung it was 55.1 µM.

On to `Cc1cn(C2CCC(CO)(CF)O2)c(=O)[nH]c1=O` (stereo unspecified), for which the total growth inhibition concentration (TGI) in the assay with NCI-H522 lung, with SK-OV-3 ovarian, in the assay on MDA-N, with EKVX NSCLC, with OVCAR-3 ovarian and with KM12 colon was greater than 100 µM in each case. Moreover, the TGI in the assay on MCF7 breast and in the assay with NCI-H226 lung was greater than 100 µM in each case.

For `Cc1ccc(S(=O)(=O)NC(CCC(=O)NNc2ccccc2)C(=O)NNc2ccccc2)cc1` (stereo unspecified), the TGI in the assay with NCI-H522 lung, in the assay with SK-OV-3 ovarian, in the assay on MDA-N, with EKVX NSCLC, in the assay on OVCAR-3 ovarian and in the assay with KM12 colon was greater than 100 µM throughout. Moreover, the TGI in the assay on MCF7 breast and in the assay with NCI-H226 lung was greater than 100 µM each time.

As to `CCCC[C@@H](C)/C=C1\CN2CCC[C@H]2[C@@](C)(OCc2ccccc2)[C@@H]1O`, the TGI in the assay with NCI-H522 lung is greater than 50 µM; with SK-OV-3 ovarian it was greater than 50 µM; in the assay on MDA-N, greater than 50 µM; with EKVX NSCLC, greater than 50 µM; in the assay on OVCAR-3 ovarian, greater than 28.7 µM; in the assay with KM12 colon, greater than 18.9 µM. The total growth inhibition concentration (TGI) in the assay on MCF7 breast and in the assay on NCI-H226 lung was greater than 50 µM throughout.

Regarding `N#Cc1c(-c2ccc(Cl)cc2)cc(-c2ccc(Nc3ccnc4cc(Cl)ccc34)cc2)[nH]c1=O`, the TGI was greater than 100 µM with NCI-H522 lung; greater than 79 µM with SK-OV-3 ovarian; greater than 100 µM with MDA-N; greater than 100 µM with EKVX NSCLC; greater than 100 µM with OVCAR-3 ovarian; greater than 100 µM with KM12 colon. The TGI with MCF7 breast and in the assay with NCI-H226 lung was greater than 100 µM each time.

Take `COc1cc2cc(C(=O)N3CC(COS(C)(=O)=O)c4ccc(NC(=O)OCc5ccccc5)cc43)[nH]c2c(OC)c1OC` (stereo unspecified): the total growth inhibition concentration (TGI) with NCI-H522 lung, in the assay on SK-OV-3 ovarian, in the assay with MDA-N, in the assay on EKVX NSCLC, in the assay with OVCAR-3 ovarian and in the assay on KM12 colon was greater than 100 µM throughout. Also, the concentration for total growth inhibition (TGI) in the assay with MCF7 breast and with NCI-H226 lung was greater than 100 µM each time.
